Assay results as given in ChEMBL document CHEMBL5321287, “Discovery, Synthesis, and Evaluation of Novel Dual Inhibitors of a Vascular Endothelial Growth Factor Receptor and Poly(ADP-Ribose) Polymerase for BRCA Wild-Type Breast Cancer Therapy” (J Med Chem, 2023).

Legend:
[1] = biological target: Vascular endothelial growth factor receptor 1 (Homo sapiens, UniProt P17948); assay: Inhibition of VEGFR1 (unknown origin) by Z'-Lyte kinase assay
[2] = Cmax in Sprague-Dawley rat at 1 mg/kg, iv by LC-MS analysis; type: ADME, organism-based; design: dose 1 mg/kg, route iv; conditions: in vivo
[3] = biological target: Serine/threonine-protein kinase 16 (Homo sapiens, UniProt O75716); assay: Inhibition of MPSK1 (unknown origin) by Z'-Lyte kinase assay
[4] = Toxicity in BALB/c nude mouse xenografted with human MDA-MB-231 cells assessed as damage in lungs at 25 to 50 mg/kg, po for 14 days; type: organism-based; conditions: in vivo, 336 h, dose 25-50 mg/kg, time 14 day
[5] = Toxicity in BALB/c nude mouse xenografted with human MDA-MB-231 cells assessed as damage in kidney at 25 to 50 mg/kg, po for 14 days; type: organism-based; conditions: in vivo, 336 h, dose 25-50 mg/kg, time 14 day
[6] = biological target: Vascular endothelial growth factor receptor 3 (Homo sapiens, UniProt P35916); assay: Inhibition of VEGFR3 (unknown origin) by Z'-Lyte kinase assay
[7] = Clearance in Sprague-Dawley rat at 1 mg/kg, iv by LC-MS analysis; type: ADME, organism-based; conditions: in vivo
[8] = Oral bioavailability in Sprague-Dawley rat at 10 mg/kg administered via gavage by LC-MS analysis; type: ADME, organism-based; conditions: in vivo
[9] = Cmax in Sprague-Dawley rat at 10 mg/kg, po via gavage by LC-MS analysis; type: ADME, organism-based; design: dose 10 mg/kg, route po; conditions: in vivo
[10] = biological target: Macrophage colony-stimulating factor 1 receptor (Homo sapiens, UniProt P07333); assay: Inhibition of FMS (unknown origin) by Z'-Lyte kinase assay
[11] = biological target: Mitogen-activated protein kinase kinase kinase 11 (Homo sapiens, UniProt Q16584); assay: Inhibition of MLK3 (unknown origin) by Z'-Lyte kinase assay
[12] = AUC (0 to t) in Sprague-Dawley rat at 10 mg/kg, po via gavage by LC-MS analysis; type: ADME, organism-based; design: dose 10 mg/kg, route po; conditions: in vivo
[13] = AUC (0 to infinity) in Sprague-Dawley rat at 10 mg/kg, po via gavage by LC-MS analysis; type: ADME, organism-based; design: dose 10 mg/kg, route po; conditions: in vivo
[14] = Toxicity in BALB/c nude mouse xenografted with human MDA-MB-231 cells assessed as damage in heart at 25 to 50 mg/kg, po for 14 days; type: organism-based; conditions: in vivo, 336 h, dose 25-50 mg/kg, time 14 day
[15] = AUC (0 to infinity) in Sprague-Dawley rat at 1 mg/kg, iv by LC-MS analysis; type: ADME, organism-based; design: dose 1 mg/kg, route iv; conditions: in vivo
[16] = biological target: T1, Serine/threonine-protein kinase TAO2 (Homo sapiens, UniProt Q9UL54); assay: Inhibition of TAO2 (unknown origin) by Z'-Lyte kinase assay
T1 sequence (Q9UL54 whole entry): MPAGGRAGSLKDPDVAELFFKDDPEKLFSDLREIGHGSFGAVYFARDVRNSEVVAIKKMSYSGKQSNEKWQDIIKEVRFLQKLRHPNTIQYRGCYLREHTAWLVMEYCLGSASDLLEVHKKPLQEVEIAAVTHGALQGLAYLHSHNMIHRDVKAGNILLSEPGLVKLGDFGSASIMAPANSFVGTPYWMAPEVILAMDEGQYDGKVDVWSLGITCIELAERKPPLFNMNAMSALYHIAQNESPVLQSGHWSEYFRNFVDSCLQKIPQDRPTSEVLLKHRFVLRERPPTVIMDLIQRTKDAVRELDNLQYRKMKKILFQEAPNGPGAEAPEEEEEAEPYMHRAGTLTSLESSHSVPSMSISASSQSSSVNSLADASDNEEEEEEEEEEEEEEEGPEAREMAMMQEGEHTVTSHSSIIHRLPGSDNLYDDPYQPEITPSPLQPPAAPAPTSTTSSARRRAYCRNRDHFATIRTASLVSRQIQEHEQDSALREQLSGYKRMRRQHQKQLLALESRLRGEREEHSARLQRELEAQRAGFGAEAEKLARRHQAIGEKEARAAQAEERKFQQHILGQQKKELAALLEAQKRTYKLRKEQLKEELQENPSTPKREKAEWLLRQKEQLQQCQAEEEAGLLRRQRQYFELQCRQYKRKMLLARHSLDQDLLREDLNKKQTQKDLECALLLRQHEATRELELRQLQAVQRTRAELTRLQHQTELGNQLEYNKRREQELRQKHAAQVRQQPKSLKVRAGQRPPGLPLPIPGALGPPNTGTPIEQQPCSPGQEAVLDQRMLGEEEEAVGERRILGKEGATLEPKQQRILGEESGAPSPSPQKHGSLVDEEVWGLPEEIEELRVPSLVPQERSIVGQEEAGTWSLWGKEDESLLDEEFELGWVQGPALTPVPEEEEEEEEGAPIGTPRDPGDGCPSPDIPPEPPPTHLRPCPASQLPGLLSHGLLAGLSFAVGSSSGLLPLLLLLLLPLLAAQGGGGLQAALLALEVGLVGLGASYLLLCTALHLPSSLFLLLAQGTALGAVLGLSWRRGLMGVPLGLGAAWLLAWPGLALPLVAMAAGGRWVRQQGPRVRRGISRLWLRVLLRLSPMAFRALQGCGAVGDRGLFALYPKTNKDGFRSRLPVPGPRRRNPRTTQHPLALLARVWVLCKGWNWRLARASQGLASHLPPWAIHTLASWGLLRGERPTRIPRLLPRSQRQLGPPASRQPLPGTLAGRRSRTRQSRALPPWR

[17] = AUC (0 to t) in Sprague-Dawley rat at 1 mg/kg, iv by LC-MS analysis; type: ADME, organism-based; design: dose 1 mg/kg, route iv; conditions: in vivo
[18] = Toxicity in BALB/c nude mouse xenografted with human MDA-MB-231 cells assessed as change in body weight at 25 to 50 mg/kg, po for 14 days; type: organism-based; conditions: in vivo, 336 h, dose 25-50 mg/kg, time 14 day
[19] = Apparent volume of distribution in Sprague-Dawley rat at 1 mg/kg, iv by LC-MS analysis; type: ADME, organism-based; conditions: in vivo, read-out: Vz
[20] = Toxicity in BALB/c nude mouse xenografted with human MDA-MB-231 cells assessed as damage in liver at 25 to 50 mg/kg, po for 14 days; type: organism-based; conditions: in vivo, 336 h, dose 25-50 mg/kg, time 14 day
[21] = Half life in Sprague-Dawley rat at 10 mg/kg, po via gavage by LC-MS analysis; type: ADME, organism-based; conditions: in vivo
[22] = Half life in Sprague-Dawley rat at 1 mg/kg, iv by LC-MS analysis; type: ADME, organism-based; conditions: in vivo
[23] = Toxicity in BALB/c nude mouse xenografted with human MDA-MB-231 cells assessed as damage in spleen at 25 to 50 mg/kg, po for 14 days; type: organism-based; conditions: in vivo, 336 h, dose 25-50 mg/kg, time 14 day
[24] = biological target: Poly [ADP-ribose] polymerase 2 (Homo sapiens, UniProt Q9UGN5); assay: Inhibition of PARP2 (unknown origin)
Chain of Poly [ADP-ribose] polymerase 2 (Q9UGN5 whole entry): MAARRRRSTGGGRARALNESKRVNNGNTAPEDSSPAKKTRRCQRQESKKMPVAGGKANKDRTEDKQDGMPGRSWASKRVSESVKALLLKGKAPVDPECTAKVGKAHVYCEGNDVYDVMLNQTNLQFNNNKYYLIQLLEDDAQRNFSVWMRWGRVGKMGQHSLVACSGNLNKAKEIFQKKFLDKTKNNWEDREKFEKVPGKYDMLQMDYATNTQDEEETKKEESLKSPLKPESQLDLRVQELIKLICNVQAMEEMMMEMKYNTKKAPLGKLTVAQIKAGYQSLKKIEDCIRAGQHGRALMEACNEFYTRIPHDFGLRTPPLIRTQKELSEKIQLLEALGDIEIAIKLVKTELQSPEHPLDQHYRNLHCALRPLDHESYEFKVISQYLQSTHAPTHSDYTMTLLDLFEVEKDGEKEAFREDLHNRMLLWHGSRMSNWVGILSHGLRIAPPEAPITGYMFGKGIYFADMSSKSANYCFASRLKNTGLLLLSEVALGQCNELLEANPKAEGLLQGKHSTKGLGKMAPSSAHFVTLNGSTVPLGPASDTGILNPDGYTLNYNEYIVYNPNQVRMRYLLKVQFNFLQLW

Chain of Mitogen-activated protein kinase kinase kinase 11 (Q16584 whole entry): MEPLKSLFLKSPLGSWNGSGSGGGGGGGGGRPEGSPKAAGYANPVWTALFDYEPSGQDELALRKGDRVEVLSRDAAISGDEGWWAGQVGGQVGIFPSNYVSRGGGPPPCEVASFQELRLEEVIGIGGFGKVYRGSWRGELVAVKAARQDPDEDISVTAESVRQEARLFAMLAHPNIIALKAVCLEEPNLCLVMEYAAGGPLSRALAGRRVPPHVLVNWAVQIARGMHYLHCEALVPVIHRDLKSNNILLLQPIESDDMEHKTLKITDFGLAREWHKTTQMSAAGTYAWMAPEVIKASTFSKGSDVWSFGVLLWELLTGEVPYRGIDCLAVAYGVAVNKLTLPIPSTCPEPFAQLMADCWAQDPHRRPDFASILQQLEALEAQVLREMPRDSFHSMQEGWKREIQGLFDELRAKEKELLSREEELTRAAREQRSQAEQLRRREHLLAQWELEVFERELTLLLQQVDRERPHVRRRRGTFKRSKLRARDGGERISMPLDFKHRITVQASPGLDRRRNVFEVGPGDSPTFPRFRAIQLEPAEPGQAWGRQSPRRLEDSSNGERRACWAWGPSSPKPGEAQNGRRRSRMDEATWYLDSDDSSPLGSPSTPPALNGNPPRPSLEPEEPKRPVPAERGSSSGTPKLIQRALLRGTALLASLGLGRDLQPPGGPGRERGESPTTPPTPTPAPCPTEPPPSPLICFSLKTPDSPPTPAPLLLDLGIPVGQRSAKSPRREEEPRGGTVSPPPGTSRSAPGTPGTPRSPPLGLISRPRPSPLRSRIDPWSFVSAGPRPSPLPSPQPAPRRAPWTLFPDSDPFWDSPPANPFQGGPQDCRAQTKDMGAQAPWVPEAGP
Chain of Vascular endothelial growth factor receptor 3 (P35916 whole entry): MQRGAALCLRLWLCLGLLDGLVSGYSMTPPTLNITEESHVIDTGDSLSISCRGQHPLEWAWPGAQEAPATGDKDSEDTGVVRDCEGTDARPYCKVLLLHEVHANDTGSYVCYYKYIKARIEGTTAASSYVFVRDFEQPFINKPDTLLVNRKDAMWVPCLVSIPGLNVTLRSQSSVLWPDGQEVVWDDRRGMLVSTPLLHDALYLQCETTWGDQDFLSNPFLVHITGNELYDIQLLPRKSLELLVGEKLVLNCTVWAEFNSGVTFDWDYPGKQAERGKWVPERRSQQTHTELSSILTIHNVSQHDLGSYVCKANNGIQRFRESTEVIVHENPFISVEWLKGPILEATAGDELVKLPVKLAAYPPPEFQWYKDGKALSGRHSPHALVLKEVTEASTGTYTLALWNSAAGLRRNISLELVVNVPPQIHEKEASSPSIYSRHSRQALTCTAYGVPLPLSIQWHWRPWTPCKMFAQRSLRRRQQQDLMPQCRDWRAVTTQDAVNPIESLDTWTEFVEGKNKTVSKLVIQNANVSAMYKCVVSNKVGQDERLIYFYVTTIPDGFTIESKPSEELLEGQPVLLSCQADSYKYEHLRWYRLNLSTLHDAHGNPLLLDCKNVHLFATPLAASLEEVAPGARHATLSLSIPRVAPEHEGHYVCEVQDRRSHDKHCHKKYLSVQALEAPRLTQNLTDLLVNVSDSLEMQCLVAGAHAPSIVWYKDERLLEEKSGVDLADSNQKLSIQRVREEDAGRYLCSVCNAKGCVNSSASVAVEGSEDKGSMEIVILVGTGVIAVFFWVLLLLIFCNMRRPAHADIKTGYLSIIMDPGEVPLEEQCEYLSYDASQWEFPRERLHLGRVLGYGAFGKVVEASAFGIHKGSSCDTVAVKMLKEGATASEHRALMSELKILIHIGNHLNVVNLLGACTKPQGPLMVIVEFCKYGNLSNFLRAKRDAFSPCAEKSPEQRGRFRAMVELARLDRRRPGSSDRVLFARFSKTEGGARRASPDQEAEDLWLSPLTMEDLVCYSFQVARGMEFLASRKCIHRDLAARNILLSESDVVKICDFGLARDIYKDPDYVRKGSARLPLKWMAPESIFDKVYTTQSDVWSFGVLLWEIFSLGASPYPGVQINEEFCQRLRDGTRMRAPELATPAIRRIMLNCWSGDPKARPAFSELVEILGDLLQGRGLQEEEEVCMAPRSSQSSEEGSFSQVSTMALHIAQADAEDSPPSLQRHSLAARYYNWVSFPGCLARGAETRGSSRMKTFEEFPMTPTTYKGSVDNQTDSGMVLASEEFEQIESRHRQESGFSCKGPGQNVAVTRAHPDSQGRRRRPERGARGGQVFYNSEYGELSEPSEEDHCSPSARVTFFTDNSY
Chain of Vascular endothelial growth factor receptor 1 (P17948 whole entry): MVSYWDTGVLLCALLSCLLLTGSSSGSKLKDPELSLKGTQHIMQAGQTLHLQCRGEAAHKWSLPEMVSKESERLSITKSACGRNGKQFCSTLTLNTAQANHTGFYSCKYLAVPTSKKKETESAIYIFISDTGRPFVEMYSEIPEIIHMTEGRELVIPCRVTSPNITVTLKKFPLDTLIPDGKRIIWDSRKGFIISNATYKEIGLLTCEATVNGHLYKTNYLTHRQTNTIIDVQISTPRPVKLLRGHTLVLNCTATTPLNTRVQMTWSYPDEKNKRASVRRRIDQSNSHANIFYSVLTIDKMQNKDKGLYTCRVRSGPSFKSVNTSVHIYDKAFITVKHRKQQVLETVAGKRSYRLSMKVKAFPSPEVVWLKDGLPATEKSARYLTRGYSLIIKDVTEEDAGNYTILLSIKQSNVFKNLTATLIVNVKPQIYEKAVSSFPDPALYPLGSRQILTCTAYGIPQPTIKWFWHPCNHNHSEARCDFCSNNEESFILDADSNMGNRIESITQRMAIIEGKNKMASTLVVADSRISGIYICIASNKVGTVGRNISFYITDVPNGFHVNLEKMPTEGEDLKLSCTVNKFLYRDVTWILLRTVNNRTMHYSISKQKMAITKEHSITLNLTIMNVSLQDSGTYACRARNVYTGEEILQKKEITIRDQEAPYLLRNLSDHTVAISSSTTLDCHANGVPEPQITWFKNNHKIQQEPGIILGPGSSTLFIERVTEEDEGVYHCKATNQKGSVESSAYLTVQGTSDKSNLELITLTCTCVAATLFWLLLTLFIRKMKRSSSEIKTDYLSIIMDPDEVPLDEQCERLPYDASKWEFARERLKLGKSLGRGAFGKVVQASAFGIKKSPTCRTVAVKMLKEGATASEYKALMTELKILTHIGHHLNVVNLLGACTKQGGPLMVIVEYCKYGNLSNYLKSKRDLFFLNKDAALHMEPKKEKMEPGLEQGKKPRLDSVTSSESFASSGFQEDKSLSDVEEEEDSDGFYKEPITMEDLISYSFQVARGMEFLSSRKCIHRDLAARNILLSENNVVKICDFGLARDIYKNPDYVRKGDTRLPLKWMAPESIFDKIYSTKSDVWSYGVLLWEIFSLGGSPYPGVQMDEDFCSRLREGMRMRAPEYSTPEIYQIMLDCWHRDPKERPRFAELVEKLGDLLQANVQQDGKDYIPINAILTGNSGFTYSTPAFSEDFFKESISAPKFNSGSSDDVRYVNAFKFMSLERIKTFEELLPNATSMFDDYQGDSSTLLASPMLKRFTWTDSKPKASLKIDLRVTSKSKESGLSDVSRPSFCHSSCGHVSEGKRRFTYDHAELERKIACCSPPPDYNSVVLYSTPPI
Chain of Macrophage colony-stimulating factor 1 receptor (P07333 whole entry): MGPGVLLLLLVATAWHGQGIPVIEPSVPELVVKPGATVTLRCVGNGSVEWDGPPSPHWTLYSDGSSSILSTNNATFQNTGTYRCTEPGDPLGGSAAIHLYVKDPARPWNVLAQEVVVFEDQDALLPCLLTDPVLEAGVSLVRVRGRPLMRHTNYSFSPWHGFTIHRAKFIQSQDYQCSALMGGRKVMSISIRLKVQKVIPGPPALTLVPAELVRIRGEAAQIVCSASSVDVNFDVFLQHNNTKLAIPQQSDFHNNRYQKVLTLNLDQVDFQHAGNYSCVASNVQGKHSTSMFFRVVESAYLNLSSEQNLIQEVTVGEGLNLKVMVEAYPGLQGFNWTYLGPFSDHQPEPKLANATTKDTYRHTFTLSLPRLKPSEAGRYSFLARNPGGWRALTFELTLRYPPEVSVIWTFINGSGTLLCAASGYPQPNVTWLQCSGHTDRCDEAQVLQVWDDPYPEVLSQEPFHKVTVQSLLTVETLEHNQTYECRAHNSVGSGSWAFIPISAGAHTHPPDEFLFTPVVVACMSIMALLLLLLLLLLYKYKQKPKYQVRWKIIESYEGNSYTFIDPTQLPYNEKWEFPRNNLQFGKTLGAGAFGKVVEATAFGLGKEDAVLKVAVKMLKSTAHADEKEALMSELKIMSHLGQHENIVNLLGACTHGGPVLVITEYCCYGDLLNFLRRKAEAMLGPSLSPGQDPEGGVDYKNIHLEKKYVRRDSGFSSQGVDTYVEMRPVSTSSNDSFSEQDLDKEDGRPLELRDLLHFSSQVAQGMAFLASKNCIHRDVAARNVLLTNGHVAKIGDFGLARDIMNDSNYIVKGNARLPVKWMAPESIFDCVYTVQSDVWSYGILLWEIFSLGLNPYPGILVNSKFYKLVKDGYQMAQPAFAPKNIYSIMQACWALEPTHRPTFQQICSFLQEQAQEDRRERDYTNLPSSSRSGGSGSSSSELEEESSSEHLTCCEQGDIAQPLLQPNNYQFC

**Q.** For `Cc1ccc(Nc2nccc(N(C)c3ccc4c(C)n(C)nc4c3)n2)cc1-c1nc2c(C(N)=O)cccc2[nH]1`, which IC50 [1] is on record?
**A.** The IC50 was 0.166 µM.

**Q.** What about the Cmax [2] of the same compound?
**A.** Its Cmax is 482 ng/mL.

**Q.** What about the IC50 [3] of the same compound?
**A.** The IC50 was 0.148 µM.

**Q.** What about the Activity [4] of the same compound?
**A.** Its Activity is “Non-Toxic”.

**Q.** And the Activity [5]?
**A.** Its Activity is “Non-Toxic”.

**Q.** What about the IC50 [6] of the same compound?
**A.** The IC50 was 0.499 µM.

**Q.** What about the clearance [7] of the same compound?
**A.** Its clearance is 20.9 mL/min/kg.

**Q.** What about the bioavailability [8] of the same compound?
**A.** Its bioavailability is 60.1%.

**Q.** What about the Cmax [9] of the same compound?
**A.** The Cmax was 2430 ng/mL.

**Q.** And the IC50 [10]?
**A.** Its IC50 is 0.299 µM.

**Q.** And the IC50 [11]?
**A.** The IC50 was 0.347 µM.

**Q.** What about the AUC(0-t) [12] of the same compound?
**A.** The AUC(0-t) was 4900 ng·h/mL.

**Q.** And the AUC(0-inf) [13]?
**A.** Its AUC(0-inf) is 4920 ng·h/mL.

**Q.** What about the Activity [14] of the same compound?
**A.** Its Activity is “Non-Toxic”.

**Q.** And the AUC(0-inf) [15]?
**A.** The AUC(0-inf) was 821 ng·h/mL.

**Q.** And the IC50 [16]?
**A.** Its IC50 is 0.689 µM.

**Q.** What about the AUC(0-t) [17] of the same compound?
**A.** Its AUC(0-t) is 815 ng·h/mL.

**Q.** And the Activity [18]?
**A.** Its Activity is “Non-Toxic”.

**Q.** What about the Vd [19] of the same compound?
**A.** The Vd was 2.2 L/kg.

**Q.** What about the Activity [20] of the same compound?
**A.** The Activity was “Non-Toxic”.

**Q.** What about the half-life [21] of the same compound?
**A.** Its half-life is 1 h.

**Q.** And the half-life [22]?
**A.** Its half-life is 1.2 h.

**Q.** And the Activity [23]?
**A.** Its Activity is “Non-Toxic”.

**Q.** And the IC50 [24]?
**A.** The IC50 was 0.0784 µM.
